Patent US6890960B1, “Vetiver oil extracts as termite repellent and toxicant” (Board of Supervisors of Louisiana State University and …, priority 1999, dated 2005)
Read-outs that look alike come from different tables or passages of the source.

How the values were obtained:
[1] = system: Formosan subterranean termites; assay: Feeding and tunneling experiment with treated balsa wood; format: in vivo, Coptotermes formosanus; conditions: data not shown
Description: Balsa wood (5 cm×5 cm×0.5 mm) was soaked for 1 hr in a 1% ethanol solution of either vetiver oil, nootkatone, TIM-BOR®, or an ethanol control. The treated wood was then dried and allowed to air until used in the experiments. The experiments were run at one, three, and six months after the wood was treated. The feeding and tunneling experimental procedure was as described in Example 2, except that in place of the filter paper as food for the termites, treated balsa wood was placed in each end compartment; and untreated sand was placed in all three chambers. Into the center chamber was added 225 workers and 25 soldiers collected from two large Formosan termite colonies in New Orleans, La. Three replicate containers for each of the two colonies and for each treatment of balsa wood were monitored for 8 days. Tunneling activity was periodically checked on days 3, 5, and 7 by scanning the bottoms of the containers. On day 8, the balsa wood was removed and weighed to determine wood consumption.

[2] = system: Formosan subterranean termites; format: in vivo; conditions: for Worker Mortality, Mean ± S.D.: workers only
Description: The amount of nootkatone isolated from the vetiver oil was insufficient to test for termite repellant activity. Nootkatone was therefore purchased from a commercial source (Lancaster Synthesis Inc., Windham, N.H.). A three-chambered plastic container was used as described above in Example 2. A small hole was melted at the bottom of each of the two inner walls to connect the chambers. Four replicate chambers were used for each concentration of nootkatone (μg/g of sand) tested: 0, 10 μg/g, 20 μg/g, 100 μg/g, and 200 μg/g. For each concentration, the nootkatone in 25 ml ethyl alcohol was mixed with 500 g #4 blasting sand as described in Example 2. The sand was dried overnight. The next day, 115 g of treated sand was added to the middle chamber; 115 g untreated sand was added to one end chamber, and a weighted filter paper (Whatman #1, 55 mm) was placed in the opposite end chamber. The filter paper had been dried at 70° C. for 3 hr and cooled to room temperature before weighing. Then 10 ml ddH2O was added to each chamber with sand and 200 μl ddH2O was added to the filter paper. Four containers with no nootkatone served as negative controls. Fifty worker and 5 soldier termites from a single colony collected in Algiers, La., were placed in each untreated sand chamber. The chambers were covered and kept in a dark incubator at 29° C.
On the 16th day, the number of live termites was counted, and the bottom of each container was scanned to determine tunneling length as described in Example 2. The filter paper from each container was removed, cleaned, dried at 70° C. for 3 hr, cooled, and finally weighed.
Between-treatment differences in filter paper weight, mortality, and tunnel length in the treated compartments were compared by analysis of variance (ANOVA) and Tukey's Studentized Range Test. The results are presented in Tables 4, 5, and 6 and in FIGS. 1-3.

humans = conditions: use in perfumery and flavor industries; cited from earlier work
termites = assay: Quick petri dish termite distribution assay of α-cedrene (treated vs untreated sand); format: in vivo; conditions: 100 μg/dish
Description: The termite bio-activity of α-cedrene, a component of vetiver oil, was tested using a commercially available product (Fluka, a division of Sigma-Aldrich, Inc., St. Louis, Mo.). A new method for screening compounds for termite bio-activity was developed that was faster than the bioassay described in Example 2. Five cm diameter petri dishes with lids were used. Two ml of hot agar solution (1.5 g/100 ml ddH2O) was spread evenly in the bottom of each dish and allowed to cool. The agar solution provided moisture for the termites and held the sand in place. The sand was autoclaved for 30 min, the alcohol with sample added, and dried in an oven. For three dishes, one half of the bottom of each dish was covered with 1.5 g treated sand mixed with a total of 100 μg α-cedrene per dish, dissolved in 250 μl ethanol, and the other half with 1.5 g untreated sand (only ethanol). The sand completely covered the agar, but was not thick enough to conceal tunneling termites. Three dishes were prepared as a control with only untreated sand in each side. Finally, ten termites were added to each dish, and the dishes were covered to eliminate light.
The termite distribution in each dish, measured by counting the number of termites on the untreated half of the dish, was examined each hour for up to 8 hr. […] Therefore the extract was considered a repellent. The extract was considered toxic if some or all termites behaved sluggishly, were moribund or dead.

Compound: C=C(C)C1CCC2=CC(=O)CC(C)C2(C)C1 (stereo not shown) [nootkatone, 4,4a5,6,7,8-hexahydro-6-isopropenyl-4,4a-dimethyl-2(3H)-naphthalenone]
- ranking of effect on wood consumption ([1]; 1 and 3 month interval after wood treatment): greatest effect on decreasing wood consumption
- wood consumption vs control group ([1]; balsa wood soaked in 1% ethanol solution, 1, 3 and 6 months after treatment, day 8): consumed less wood than the control group
- effectiveness as a termite repellent ([1]; six months after the initial treatment of the wood sample): retained their effectiveness
- reduction of wood consumption compared with borate solution ([1]; six months after wood treatment): as effective as the borate solution
- tunneling activity of the termites ([1]; treated balsa wood, even after three months): substantially reduced with vetiver oil and especially with nootkatone
- Filter Paper Consumption, Mean ± S.D. ([2]; 10 μg/gm sand, 16th day): 0.0019 ± 0.002641 gm
- Tunnel Length in Treated Compartment, Mean ± S.D. ([2]; 10 μg/gm sand, 16th day): 7.225 ± 5.155 cm
- Worker Mortality, Mean ± S.D. ([2]; 10 μg/gm sand, 16th day): 88.50 ± 10.12
- Filter Paper Consumption, Mean ± S.D. ([2]; 20 μg/gm sand, 16th day): 0.000525 ± 0.000709 gm
- Tunnel Length in Treated Compartment, Mean ± S.D. ([2]; 20 μg/gm sand, 16th day): 0.000 ± 0.000 cm
- Worker Mortality, Mean ± S.D. ([2]; 20 μg/gm sand, 16th day): 87.00 ± 18.22
- Filter Paper Consumption, Mean ± S.D. ([2]; 100 μg/gm sand, 16th day): 0.000025 ± 0.000050 gm
- Tunnel Length in Treated Compartment, Mean ± S.D. ([2]; 100 μg/gm sand, 16th day): 0.000 ± 0.000 cm
- Worker Mortality, Mean ± S.D. ([2]; 100 μg/gm sand, 16th day): 90.50 ± 11.70
- Filter Paper Consumption, Mean ± S.D. ([2]; 200 μg/gm sand, 16th day): 0.000275 ± 0.00055 gm
- Tunnel Length in Treated Compartment, Mean ± S.D. ([2]; 200 μg/gm sand, 16th day): 0.000 ± 0.000 cm
- Worker Mortality, Mean ± S.D. ([2]; 200 μg/gm sand, 16th day): 95.00 ± 8.718
- worker mortality ([2]; all chambers where the nootkatone concentration was ≦100 μg/g sand): Ninety percent mortality or greater
- tunneling in the middle chamber ([2]; concentrations higher than 10 μg/g, 16th day): no tunneling was visible
- consumption of filter paper ([2]; concentrations higher than 20 μg/g): Almost no consumption of filter paper
- lowest concentration effective as repellent and toxicant (decreased tunneling and feeding, increased mortality) ([2]; in sand): 10 µg/g
- feeding as measured by loss of filter paper weight vs control ([2]; lowest concentration (10 μg/g)): significantly decreased feeding
- tunneling activity in middle chamber ([2]; lowest concentration of 10 μg/g, 16th day): substantially decreased the tunneling activity
- toxicity to humans (humans): essentially non-toxic to humans

Compound: CC1=CC[C@@]23C[C@@H]1C(C)(C)[C@@H]2CC[C@H]3C [α-Cedrene, α-cedrene]
- termite deaths (termites): None of the termites died
- repellency for termites (termites; 2-3 h time frame): weak repellent
- Percent of termites on the untreated side (sum of the three replicates) (termites; 1 hr): 50%
- Percent of termites on the untreated side (sum of the three replicates) (termites; 2 hr): 93.3%
- Percent of termites on the untreated side (sum of the three replicates) (termites; 3 hr): 86.7%
- Percent of termites on the untreated side (sum of the three replicates) (termites; 4 hr): 63.3%
- Percent of termites on the untreated side (sum of the three replicates) (termites; 24 hr): 63.3%
